Data reported in PubChem BioAssay (NCI).
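Where inhibition never reached the appropriate level, the endpoint shown equals the highest concentration tested. Otherwise, values were interpolated linearly from a five-concentration, 48-hour dose response in 96-well plates. At the GI50, growth is halved. TGI marks complete inhibition of growth.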

What was measured:
Assay in all cases: DTP human tumour cell line panel, 48 h
[1] = tested on: UACC-62 melanoma
[2] = tested on: HS 578T breast
[3] = tested on: SN12C renal
[4] = tested on: RPMI-8226 leukemia
[5] = tested on: A498 renal
[6] = tested on: HOP-92 NSCLC
[7] = tested on: SK-MEL-28 melanoma
[8] = tested on: SR leukemia
[9] = tested on: SF-295 CNS
[10] = tested on: RXF 393 renal
[11] = tested on: NCI-H522 lung
[12] = tested on: ACHN renal
[13] = tested on: HOP-62 NSCLC
[14] = tested on: PC-3 prostate
[15] = tested on: DU-145 prostate
[16] = tested on: MDA-MB-468 breast
[17] = tested on: EKVX NSCLC
[18] = tested on: SK-OV-3 ovarian
[19] = tested on: NCI/ADR-RES ovarian
[20] = tested on: SF-268 CNS
[21] = tested on: MDA-MB-435
[22] = tested on: T-47D breast
[23] = tested on: MALME-3M melanoma
[24] = tested on: OVCAR-3 ovarian
[25] = tested on: BT-549 breast
[26] = tested on: TK-10 renal
[27] = tested on: SNB-19 CNS
[28] = tested on: CCRF-CEM leukemia
[29] = tested on: LOX IMVI melanoma
[30] = tested on: SF-539 CNS
[31] = tested on: OVCAR-5 ovarian
[32] = tested on: MOLT-4 leukemia
[33] = tested on: NCI-H226 lung
[34] = tested on: K-562 leukemia
[35] = tested on: HCC-2998 colon
[36] = tested on: OVCAR-4 ovarian
[37] = tested on: NCI-H460 lung
[38] = tested on: HCT-116 colon
[39] = tested on: U251 CNS
[40] = tested on: M14 melanoma
[41] = tested on: UO-31 renal
[42] = tested on: MCF7 breast
[43] = tested on: HT29 colon
[44] = tested on: IGROV1 ovarian
[45] = tested on: MDA-MB-231 breast
[46] = tested on: COLO 205 colon
[47] = tested on: NCI-H23 lung
[48] = tested on: CAKI-1 renal
[49] = tested on: A549 NSCLC
[50] = tested on: KM12 colon
[51] = tested on: 786-0 renal
[52] = tested on: SK-MEL-5 melanoma
[53] = tested on: OVCAR-8 ovarian
[54] = tested on: HCT-15 colon
[55] = tested on: SW-620 colon
[56] = tested on: UACC-257 melanoma
[57] = tested on: SK-MEL-2 melanoma

For `COc1ccccc1/C=C/C(=O)c1ccc(OC)c(S(N)(=O)=O)c1`, the GI50 [1] was 2950 nM, the TGI [1] was 12.3 µM and the GI50 [2] was 3.27 µM. It also gave a TGI [2] of 20 µM, a GI50 [3] of 2790 nM and a TGI [3] of 10.4 µM. It also gave a GI50 [4] of 2490 nM, a TGI [4] of 7.46 µM and a GI50 [5] of 10.6 µM. The TGI [5] was 22.6 µM, the GI50 [6] was 2080 nM and the TGI [6] was 8.78 µM. It also gave a GI50 [7] of 4.49 µM, a TGI [7] of 15.8 µM and a GI50 [8] of 1440 nM. The TGI [8] was 6.2 µM, the GI50 [9] was 2660 nM and the TGI [9] was 10.6 µM. For the same compound, the GI50 [10] was 2350 nM, the TGI [10] was 8.86 µM and the GI50 [11] was 2120 nM. It also gave a TGI [11] of 6.58 µM, a GI50 [12] of 3.38 µM and a TGI [12] of 12.4 µM. For the same compound, the GI50 [13] was 2880 nM, the TGI [13] was 10.3 µM and the GI50 [14] was 4.81 µM. It also gave a TGI [14] of 18.5 µM, a GI50 [15] of 3.22 µM and a TGI [15] of 12 µM. It also gave a GI50 [16] of 2040 nM, a TGI [16] of 5.91 µM and a GI50 [17] of 3.58 µM. For the same compound, the TGI [17] was 14.1 µM, the GI50 [18] was 7.25 µM and the TGI [18] was 20.4 µM. For the same compound, the GI50 [19] was 2290 nM, the TGI [19] was 6.68 µM and the GI50 [20] was 3.28 µM. The TGI [20] was 12 µM, the GI50 [21] was 2980 nM and the TGI [21] was 11.5 µM. It also gave a GI50 [22] of 3.25 µM, a TGI [22] of 12.3 µM and a GI50 [23] of 3.99 µM. For the same compound, the TGI [23] was 16.2 µM, the GI50 [24] was 2230 nM and the TGI [24] was 5.05 µM. It also gave a GI50 [25] of 2580 nM, a TGI [25] of 8.21 µM and a GI50 [26] of 3.54 µM. For the same compound, the TGI [26] was 13 µM, the GI50 [27] was 4.02 µM and the TGI [27] was 15.3 µM. It also gave a GI50 [28] of 2530 nM, a TGI [28] of 6.81 µM and a GI50 [29] of 1980 nM. The TGI [29] was 5.27 µM, the GI50 [30] was 2250 nM and the TGI [30] was 4.96 µM. For the same compound, the GI50 [31] was 2200 nM, the TGI [31] was 6.14 µM and the GI50 [32] was 2400 nM. It also gave a TGI [32] of 8.35 µM, a GI50 [33] of 3.96 µM and a TGI [33] of 15.5 µM. The GI50 [34] was 349 nM, the TGI [34] was 14.6 µM and the GI50 [35] was 2650 nM. The TGI [35] was 12 µM, the GI50 [36] was 3.65 µM and the TGI [36] was 16.4 µM. For the same compound, the GI50 [37] was 2090 nM, the TGI [37] was 5.51 µM and the GI50 [38] was 2490 nM. The TGI [38] was 9.38 µM, the GI50 [39] was 2580 nM and the TGI [39] was 10.7 µM. For the same compound, the GI50 [40] was 2710 nM, the TGI [40] was 11.8 µM and the GI50 [41] was 2900 nM. The TGI [41] was 13.4 µM, the GI50 [42] was 2670 nM and the TGI [42] was 11.3 µM. It also gave a GI50 [43] of 3.06 µM, a TGI [43] of 10.2 µM and a GI50 [44] of 3.08 µM. For the same compound, the TGI [44] was 11.5 µM, the GI50 [45] was 2720 nM and the TGI [45] was 7.47 µM. The GI50 [46] was 3.54 µM, the TGI [46] was 13.4 µM and the GI50 [47] was 2290 nM. For the same compound, the TGI [47] was 9.56 µM, the GI50 [48] was 3.18 µM and the TGI [48] was 13 µM. For the same compound, the GI50 [49] was 3.11 µM, the TGI [49] was 13 µM and the GI50 [50] was 2890 nM. For the same compound, the TGI [50] was 10 µM, the GI50 [51] was 3.25 µM and the TGI [51] was 12.9 µM. For the same compound, the GI50 [52] was 3.85 µM, the TGI [52] was 14.2 µM and the GI50 [53] was 2360 nM. For the same compound, the TGI [53] was 7.16 µM, the GI50 [54] was 1990 nM and the TGI [54] was 10.5 µM. It also gave a GI50 [55] of 2860 nM, a TGI [55] of 10.8 µM and a GI50 [56] of 5.96 µM. It also gave a TGI [56] of 19.6 µM, a GI50 [57] of 10.4 µM and a TGI [57] of 22.3 µM.
